The numbers were not newly measured in patent US20120164100A1, “TEMPERATURE SENSITIVE HYDROGEL AND BLOCK COPOLYMERS” (priority 2010, published 2012), which cites them from elsewhere.

For `CCCCC[C@H](O)/C=C/[C@H]1[C@H](O)CC(=O)[C@@H]1C/C=C\CCCC(=O)O` [PGE2, Prostaglandin E2], the solubility result (pH above 6, Critical Micelle Concentration) is reported as “about 5 mg/mL”. Further, the half life entry (physiological condition) is recorded as “very short”.
